Data on one molecule can be found in paper PMC11433535 (Life, 2024).

The subject of data set [1] is Frog virus 3 (FV3). Kind of data set: qPCR of viral DNA load in infected EPC cells, FV3. It counts as cell-based. Particulars: 800 µM acyclovir, MOI 0.05, 48 h, normalized to beta-actin. The method, then:
(§1) The EPC cells were also seeded in 24-well plates (2 × 10^5 cells/well) and incubated overnight at 25 °C. […] The plates were incubated for 48 h at 25 °C. Afterwards, the plates were frozen at −20 °C, followed by nucleic acid extraction and qPCR analysis.
(§2) Extraction of viral DNA was carried out with the Viral Nucleic Acid Extraction Kit II (Geneaid, New Taipei City, China) according to the manufacturer’s instructions. The extracted DNA was stored at −20 °C. Quantitative PCRs (qPCRs) were used to determine the relative amount of viral DNA in the treated and control groups. The qPCRs were performed in a Bio-Rad® Real-Time PCR System instrument (Bio-Rad, Hercules, CA, USA) using the SensiFast^TM SYBR Hi-ROX Kit (Bioline, London, UK). The PCR mixture contained 10 µL of 2xSensifast SYBR mix, 0.8 µL of forward and reverse primers, 6.4 µL pf distilled water, and 2 µL of the target DNA. The final 20 µL mixture was used in a program that included an initial denaturing step at 95 °C for 3 min, followed by 40 cycles of 95 °C for 5 s and either 65 °C or 72 °C for 30 s. All the qPCRs were performed in duplicate, and the beta-actin gene of the EPC cells was used as an internal standard. The resulting qPCR data were analyzed by the Bio-Rad CFX Maestro Software. During the experiment, ranavirus major capsid protein forward and reverse primers were used for both the ECV and FV3 viruses. […]
In general terms: In qPCR the cycle at which signal appears reflects the starting amount.

The test system of data set [2] is European catfish virus (ECV). Kind of data set: Endpoint virus titration (TCID50/mL) in EPC cells, ECV. The class given is cell-based. Particulars: 800 µM acyclovir, 10 days, vs control. As to the method:
(§3) Epithelioma Papulosum Cyprini (EPC; ATCC CRL-2872) cells were grown and handled as described in detail previously. IcHV-2 originates from Italy, while the ECV strain (14612/2012) was isolated from the brown bullhead in Hungary. The Frog Virus 3 strain Granoff (FV3, ATCC VR-567) was originally isolated from a leopard frog (Lithobates pipiens) in the USA in 1965 [38] and was propagated on various fish and reptilian cell lines before it was added to our collection by courtesy of Rachel Marschang (University of Hohenheim, Stuttgart, Germany). All three viruses were cultivated in the EPC cell line at 25 °C. The tissue culture infectious dose (TCID50/mL) was calculated by the Reed and Muench method.
(§4) The EPC cells were seeded into 96-well plates (2 × 10^4 cells/well) and incubated overnight at 25 °C. […] The titers were read after 10 days of incubation at 25 °C.

The test system of data set [3] is CyHV-3. Particulars: 222.02 and 444.04 µM acyclovir; cited from earlier work.
Data set [4] relates to Ictalurid herpesvirus 2 (IcHV-2). Nature of the data set: qPCR of viral DNA load in infected EPC cells, IcHV-2. It counts as cell-based. Particulars: 800 µM acyclovir, MOI 0.05, 48 h, normalized to beta-actin. As to the method:
as §1, §2

Data set [5] is described as follows: Solubility of acyclovir in the cell culture medium. It counts as physicochemical. Particulars: fully supplemented EMEM cell culture medium, crystallization observed at 3200 µM. As to the method:
The following concentrations were prepared for the experiments: 3200 µM, 1600 µM, 800 µM, 400 µM, 200 µM, 100 µM, and 50 µM.

Data set [6] concerns IcHV-1. Particulars: 10 µM acyclovir, BB cells; cited from earlier work.
Data set [7] relates to Ictalurid herpesvirus 2 (IcHV-2). Nature of the data set: Endpoint virus titration (TCID50/mL) in EPC cells, IcHV-2. Particulars: 800 µM acyclovir, 10 days, vs control. It counts as cell-based. As to the method:
as §3, §4

Data set [8] is described as follows: in vitro. It counts as cell-based. Particulars: fathead minnow (Pimephales promelas). As to the method:
In brief, 96-well plates were seeded with the EPC cells at a density of 2 × 10^4 cells/well and incubated for 24 h at 25 °C. The growth medium was then replaced with acyclovir-containing medium at concentrations of 3200 µM, 1600 µM, 800 µM, 400 µM, 200 µM, 100 µM, and 50 µM.

The subject of data set [9] is European catfish virus (ECV). Nature of the data set: qPCR of viral DNA load in infected EPC cells, ECV. It counts as cell-based. Particulars: 800 µM acyclovir, MOI 0.05, 48 h, normalized to beta-actin. As to the method: as §1, §2
Data set [10] has as its system Frog virus 3 (FV3). Nature of the data set: Endpoint virus titration (TCID50/mL) in EPC cells, FV3. The class given is cell-based. Particulars: 800 µM acyclovir, 10 days, vs control. The method, then: as §3, §4

Each structure is given as a SMILES string. Values after ≈ are worked out from the molar mass of the structure shown.

Broadly, the solubility is how much of the substance goes into solution per volume. A high value points to a readily soluble substance. What is called viability is a read-out of living cells in per cent, often relative to untreated cells. Regarding `Nc1nc2c(ncn2COCCO)c(=O)[nH]1` [acyclovir], the “Reduction of viral DNA load (qPCR)” value in data set [1] was 10^3 fold. In addition, in data set [2], the “Decrease of viral load (TCID50/mL titer)” value is 2500 fold. The “Reduction (CyHV-3)” value in data set [3] is given as 98%. Further, in data set [4], the “Reduction of viral DNA load (qPCR)” value is 10^4 fold. In data set [5], this molecule came in with a solubility of 3.2 mM (≈ 721 µg/mL). Further, in data set [6], the “Reduction of plaque number” value is given as 99%. Besides, in data set [7], the “Decrease of viral load (TCID50/mL titer)” value was found to be 30 fold. In data set [8], the viability at 3 days, 50 µM was determined as 113 ± 1.92%; the viability at 3 days, 100 µM was found to be 105 ± 1.48%; the viability at 3 days, 200 µM amounted to 111 ± 2.27%; the viability at 3 days, 400 µM was found to be 110 ± 3.45%. Further, in data set [8], the viability at 3 days, 800 µM is 103 ± 1.41%; the viability at 3 days, 1600 µM came to 94.3 ± 1.47%; the viability at 3 days, 3200 µM worked out at 103 ± 1.58%. Further, in [9], the “Reduction of viral DNA load (qPCR)” value is 10^5 fold. Also, the “Decrease of viral load (TCID50/mL titer)” value in data set [10] stood at 11 fold.
